Laboratory results from patent publication US12570659B2, “Bicyclic heteroaryl compounds useful as IRAK4 inhibitors” (BRISTOL-MYERS SQUIBB COMPANY, priority 2019, dated 2026).

What was measured:
[1] = biological target: IRAK4 (Homo sapiens (Human), UniProt Q9NWZ3); assay: IRAK4 Inhibition Assay; assay type: biochemical; conditions: ATP 500 μM; IRAK4 0.6 nM; 60 min room temperature
Method in brief: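 Phosphorylated and unphosphorylated fluorescent substrate were resolved by microfluidic electrophoresis after termination with 35 mM EDTA. The room-temperature kinase reaction lasted 60 min after IRAK4, substrates and test compound were combined; vehicle-only defined 0% and no-enzyme 100% inhibition.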

[2] = biological target: JAK3 kinase (Homo sapiens (Human), UniProt P52333); assay: JAK3 Homogeneous Time Resolved Fluorescence (HTRF) Assay; assay type: binding; conditions: for IC50: competition binding with fluorescein-labeled ATP competitive probe; for Ratio of JAK3 IC50 to IRAK4 IC50: selectivity for IRAK4 over JAK3
Method in brief: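 IC50 reflects displacement of a fluorescein-labeled ATP-site probe (at its Kd) from 1 nM tagged JAK3, detected via 0.2 nM Tb anti-His or anti-GST antibody. One-hour incubation; 495 and 520 nm emission ratios, background-subtracted, normalized to maximum signal; 11-point percent inhibition, 4-parameter logistic.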

JAK3 kinase, sequence (P52333 whole entry): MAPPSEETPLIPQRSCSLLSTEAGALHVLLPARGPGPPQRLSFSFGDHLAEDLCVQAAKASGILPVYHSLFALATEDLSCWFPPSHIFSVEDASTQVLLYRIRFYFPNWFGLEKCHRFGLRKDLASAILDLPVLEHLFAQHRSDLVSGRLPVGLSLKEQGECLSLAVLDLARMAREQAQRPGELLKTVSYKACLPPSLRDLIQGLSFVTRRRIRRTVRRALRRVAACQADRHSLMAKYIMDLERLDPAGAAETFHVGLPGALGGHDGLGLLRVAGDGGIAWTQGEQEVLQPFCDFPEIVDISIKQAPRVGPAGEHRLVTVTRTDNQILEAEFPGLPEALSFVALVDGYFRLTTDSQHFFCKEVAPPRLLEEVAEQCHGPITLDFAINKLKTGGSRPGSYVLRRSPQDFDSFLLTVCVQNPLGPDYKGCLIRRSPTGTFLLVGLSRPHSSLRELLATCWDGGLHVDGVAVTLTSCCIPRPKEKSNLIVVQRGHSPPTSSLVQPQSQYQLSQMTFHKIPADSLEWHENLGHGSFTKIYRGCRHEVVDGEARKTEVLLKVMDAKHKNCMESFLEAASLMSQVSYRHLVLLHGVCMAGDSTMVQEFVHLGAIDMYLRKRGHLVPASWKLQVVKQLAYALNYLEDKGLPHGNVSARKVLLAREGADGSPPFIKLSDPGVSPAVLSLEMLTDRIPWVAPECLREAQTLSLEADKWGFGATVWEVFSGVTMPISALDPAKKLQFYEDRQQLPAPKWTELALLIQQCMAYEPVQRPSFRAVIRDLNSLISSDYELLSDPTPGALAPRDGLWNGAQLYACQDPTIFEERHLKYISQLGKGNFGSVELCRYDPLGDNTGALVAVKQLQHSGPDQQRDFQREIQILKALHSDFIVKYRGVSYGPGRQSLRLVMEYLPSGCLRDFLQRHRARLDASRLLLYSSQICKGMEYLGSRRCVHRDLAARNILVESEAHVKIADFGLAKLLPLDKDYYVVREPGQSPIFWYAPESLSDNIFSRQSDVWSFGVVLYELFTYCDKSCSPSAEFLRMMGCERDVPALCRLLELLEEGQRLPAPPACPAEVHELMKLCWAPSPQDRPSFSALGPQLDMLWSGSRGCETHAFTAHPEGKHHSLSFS
IRAK4, sequence (Q9NWZ3 whole entry, species assumed): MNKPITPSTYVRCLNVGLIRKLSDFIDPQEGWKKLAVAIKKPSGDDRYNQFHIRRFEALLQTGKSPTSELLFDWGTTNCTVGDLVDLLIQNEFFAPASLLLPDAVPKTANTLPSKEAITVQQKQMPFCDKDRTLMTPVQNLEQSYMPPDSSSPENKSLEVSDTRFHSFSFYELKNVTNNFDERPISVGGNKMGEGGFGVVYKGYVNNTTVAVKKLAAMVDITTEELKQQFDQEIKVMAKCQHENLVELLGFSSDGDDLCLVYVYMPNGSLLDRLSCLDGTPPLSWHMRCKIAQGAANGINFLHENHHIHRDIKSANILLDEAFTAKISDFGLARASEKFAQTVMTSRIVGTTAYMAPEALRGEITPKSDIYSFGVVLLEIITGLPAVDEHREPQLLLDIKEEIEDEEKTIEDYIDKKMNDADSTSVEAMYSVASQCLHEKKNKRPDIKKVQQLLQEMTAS

Row | SMILES | IC50 [1] | IC50 [2] | Ratio of JAK3 IC50 to IRAK4 IC50 [2]
1 | CC(C)Nc1c(C(=O)NC[C@@H](F)C(C)(C)O)cnc2cc(-c3cncnc3)nn12 [Example 127, (R)—N-(2-fluoro-3-hydroxy-3-methylbutyl)-7-(isopropylamino)-2-(pyrimidin-5-yl)pyrazolo[1,5-a]pyrimidine-6-carboxamide] | 170 nM | > 10000 nM | >59
2 | CC(C)Nc1c(C(=O)NC[C@@H](F)C(C)(C)O)cnc2cc(-c3cccc(C#N)c3)nn12 [Example 133, (R)-2-(3-cyanophenyl)-N-(2-fluoro-3-hydroxy-3-methylbutyl)-7-(isopropylamino)pyrazolo[1,5-a] pyrimidine-6-carboxamide] | 130 nM | > 2000 nM | >15
3 | Nc1c(C(=O)NCCN2CCOCC2)cnn2cc(-c3ccncc3F)cc12 [Example 79, 4-amino-6-(3-fluoropyridin-4-yl)-N-(2-morpholinoethyl)pyrrolo[1,2-b]pyridazine-3-carboxamide] | 110 nM | > 50000 nM | >455
4 | CC(C)Nc1c(C(=O)NC[C@@H](F)C(C)(C)O)cnc2cc(-c3ccc(C#N)cc3)nn12 [Example 141, (R)-2-(4-cyanophenyl)-N-(2-fluoro-3-hydroxy-3-methylbutyl)-7-(isopropylamino)pyrazolo[1,5-a]pyrimidine-6-carboxamide] | 11 nM | > 50000 nM | >4545
5 | CC(C)Nc1c(C(=O)NC[C@@H](F)C(C)(C)O)cnc2cc(C3CC3)nn12 [Example 147, (R)-2-cyclopropyl-N-(2-fluoro-3-hydroxy-3-methylbutyl)-7-(isopropylamino)pyrazolo[1,5-a]pyrimidine-6-carboxamide] | 420 nM | > 50000 nM | >119
6 | Cc1cc(-c2cc3c(NCCC(C)(C)O)c(C(=O)NC[C@@H](F)C(C)(C)O)cnn3c2)ccn1 [Example 23, (R)—N-(2-fluoro-3-hydroxy-3-methylbutyl)-4-((3-hydroxy-3-methylbutyl)amino)-6-(2-methylpyridin-4-yl)pyrrolo[1,2-b]pyridazine-3-carboxamide] | 110 nM | > 50000 nM | >455
7 | CC(C)(O)CCNc1c(C(=O)NC[C@@H](F)C(C)(C)O)cnn2cc(-c3ccc(F)nc3)cc12 [Example 21, (R)—N-(2-fluoro-3-hydroxy-3-methylbutyl)-6-(6-fluoropyridin-3-yl)-4-((3-hydroxy-3-methylbutyl)amino)pyrrolo[1,2-b] pyridazine-3-carboxamide] | 170 nM | > 50000 nM | >294
8 | CC(C)Nc1c(C(=O)NC[C@@H](F)C(C)(C)O)cnc2cc(-c3ccccc3)nn12 [Example 128, (R)—N-(2-fluoro-3-hydroxy-3-methylbutyl)-7-(isopropylamino)-2-phenylpyrazolo[1,5-a]pyrimidine-6-carboxamide] | 57 nM | > 10000 nM | >175
9 | Cc1cncc(-c2cc3ncc(C(=O)NC[C@@H](F)C(C)(C)O)c(NC(C)C)n3n2)c1 [Example 146, (R)—N-(2-fluoro-3-hydroxy-3-methylbutyl)-7-(isopropylamino)-2-(5-methylpyridin-3-yl)pyrazolo[1,5-a]pyrimidine-6-carboxamide] | 480 nM | > 50000 nM | >104
10 | CC(C)(O)[C@H](F)CNC(=O)c1cnc2cc(-c3cccnc3)nn2c1N[C@H]1CCC[C@H]1O [Example 139, N—((R)-2-fluoro-3-hydroxy-3-methylbutyl)-7-(((1S,2R)-2-hydroxycyclopentyl)amino)-2-(pyridin-3-yl)pyrazolo[1,5-a] pyrimidine-6-carboxamide] | 250 nM | > 50000 nM | >200
11 | CC(C)Nc1c(C(=O)NCCN2CCOCC2)cnn2cc(-c3cn[nH]c3)nc12 [Example 110, 8-(isopropylamino)-N-(2-morpholinoethyl)-2-(1H-pyrazol-4-yl) imidazo[1,2-b]pyridazine-7-carboxamide] | 150 nM | > 50000 nM | >333
12 | COc1cc(-c2cc3c(NC(C)C)c(C(=O)NCCC(C)(C)O)cnn3c2)c(F)cn1 [Example 78, 6-(5-fluoro-2-methoxypyridin-4-yl)-N-(3-hydroxy-3-methylbutyl)-4-(isopropylamino) pyrrolo[1,2-b]pyridazine-3-carboxamide] | 9.1 nM | > 50000 nM | >5495
13 | CC(C)(O)[C@H](F)CNC(=O)c1cnc2cc(-c3cccnc3)nn2c1N[C@H]1CC[C@H](C(C)(C)O)CC1 [Example 159, N—((R)-2-fluoro-3-hydroxy-3-methylbutyl)-7-(((1r,4R)-4-(2-hydroxypropan-2-yl)cyclohexyl)amino)-2-(pyridin-3-yl)pyrazolo[1,5-a]pyrimidine-6-carboxamide] | 53 nM | > 50000 nM | >943
14 | Cc1ncccc1-c1cc2ncc(C(=O)NC[C@@H](F)C(C)(C)O)c(NC(C)C)n2n1 [Example 132, (R)—N-(2-fluoro-3-hydroxy-3-methylbutyl)-7-(isopropylamino)-2-(2-methylpyridin-3-yl)pyrazolo[1,5-a]pyrimidine-6-carboxamide] | 230 nM | > 50000 nM | >217
15 | CC(C)(C)CNc1c(C(=O)NC[C@@H](F)C(C)(C)O)cnc2cc(-c3cccnc3)nn12 [Example 155, (R)—N-(2-fluoro-3-hydroxy-3-methylbutyl)-7-(neopentylamino)-2-(pyridin-3-yl)pyrazolo[1,5-a]pyrimidine-6-carboxamide] | 90 nM | > 50000 nM | >556
16 | Cc1cnccc1-c1cc2c(NC(C)C)c(C(=O)NCCC(C)(C)O)cnn2c1 [Example 72, N-(3-hydroxy-3-methylbutyl)-4-(isopropylamino)-6-(3-methylpyridin-4-yl)pyrrolo[1,2-b]pyridazine-3-carboxamide] | 70 nM | > 50000 nM | >714
17 | Cc1cc(F)ncc1-c1cc2c(NC(C)C)c(C(=O)N[C@H]3CC[C@H](C(=O)N4CCOCC4)CC3)cnn2c1 [Example 83, 6-(6-fluoro-4-methylpyridin-3-yl)-4-(isopropylamino)-N-((1r,4r)-4-(morpholine-4-carbonyl)cyclohexyl)pyrrolo[1,2-b]pyridazine-3-carboxamide] | 23 nM | ~49000 nM | ~2130
18 | CC(C)Nc1c(C(=O)NC[C@@H](F)C(C)(C)O)cnc2cc(-c3cccc(=O)[nH]3)nn12 [Example 145, (R)—N-(2-fluoro-3-hydroxy-3-methylbutyl)-7-(isopropylamino)-2-(6-oxo-1,6-dihydropyridin-2-yl) pyrazolo[1,5-a]pyrimidine-6-carboxamide] | 300 nM | > 50000 nM | >167
19 | CC(C)Nc1c(C(=O)NC[C@@H](F)C(C)(C)O)cnn2cc(-c3cccnc3F)cc12 [Example 7, (R)—N-(2-fluoro-3-hydroxy-3-methylbutyl)-6-(2-fluoropyridin-3-yl)-4-(isopropylamino)pyrrolo[1,2-b]pyridazine-3-carboxamide] | 6.4 nM | > 10000 nM | >1563
20 | CC(=O)N[C@H]1CC[C@H](NC(=O)c2cnn3cc(-c4ccc(C(N)=O)cc4)cc3c2NC(C)C)CC1 [Example 74, N-((1r,4r)-4-acetamidocyclohexyl)-6-(4-carbamoylphenyl)-4-(isopropylamino)pyrrolo[1,2-b] pyridazine-3-carboxamide] | 96 nM | > 50000 nM | >521
21 | COc1cc(-c2cc3c(NC(C)C)c(C(=O)N[C@H]4CC[C@H](O)CC4)cnn3c2)c(F)cn1 [Example 57, 6-(5-fluoro-2-methoxypyridin-4-yl)-N-((1r,4r)-4-hydroxycyclohexyl)-4-(isopropylamino)pyrrolo[1,2-b]pyridazine-3-carboxamide] | 20 nM | > 50000 nM | >2500
22 | CC(C)Nc1c(C(=O)NC[C@@H](F)C(C)(C)O)cnn2cc(-c3ccncc3)nc12 [Example 100, (R)—N-(2-fluoro-3-hydroxy-3-methylbutyl)-8-(isopropylamino)-2-(pyridin-4-yl)imidazo[1,2-b]pyridazine-7-carboxamide] | 15 nM | > 50000 nM | >3333
23 | CC(C)Nc1c(C(=O)NC[C@@H](F)C(C)(C)O)cnc2cc(-c3cncc(C#N)c3)nn12 [Example 124, (R)-2-(5-cyanopyridin-3-yl)-N-(2-fluoro-3-hydroxy-3-methylbutyl)-7-(isopropylamino) pyrazolo[1,5-a]pyrimidine-6-carboxamide] | 360 nM | > 50000 nM | >139
24 | CC(C)Nc1c(C(=O)NC[C@@H](F)C(C)(C)O)cnc2cc(-c3cccnc3F)nn12 [Example 125, (R)—N-(2-fluoro-3-hydroxy-3-methylbutyl)-2-(2-fluoropyridin-3-yl)-7-(isopropylamino)pyrazolo[1,5-a] pyrimidine-6-carboxamide] | 48 nM | > 10000 nM | >208
25 | CC(C)Nc1c(C(=O)NC[C@@H](F)C(C)(C)O)cnn2cc(Nc3ncc(C#N)cc3Cl)cc12 [Example 42, (R)-6-((3-chloro-5-cyanopyridin-2-yl)amino)-N-(2-fluoro-3-hydroxy-3-methylbutyl)-4-(isopropylamino)pyrrolo[1,2-b]pyridazine-3-carboxamide] | 26 nM | > 50000 nM | >1923
